Patent US6979686B1, “Substituted pyrazoles as p38 kinase inhibitors” (Pharmacia Corporation, priority 2001, dated 2005)

Assays:
[1] = system: TNF alpha, BALB/c mice injected with LPS; assay: Mouse model of LPS-induced TNF alpha production; assay type: in vivo; conditions: Table 6, mouse LPS; for mLPS 8 h percent inhibition: head '8 h'
Protocol: Mouse Model of LPS-induced TNF Alpha Production:
TNF alpha was induced in 10-12 week old BALB/c female mice by tail vein injection with 100 ng lipopolysaccharide (from S. Typhosa) in 0.2 ml saline. One hour later mice were bled from the retroorbital sinus and TNF concentrations in serum from clotted blood were quantified by ELISA.
Efficacy was determined at each time point as percent inhibition of serum TNF levels relative to LPS injected mice that received vehicle only.
In vivo assessment of the ability of the compounds to inhibit LPS-stimulated TNP release in the mouse is shown in the column identified as: • “Mouse LPS Model, % TNF inhib @ dose @ predose time” wherein in the dose is milligram per kilogram (mpk) administered by oral gavage and the predose time indicates the number of hours before LPS challenge when the compound is administered.

[2] = system: TNF-α, U937 human histiocytic lymphoma cell line; assay: LPS stimulation of TNF production by U937 cells; assay type: cell-based; conditions: TNF production, U937 cells stimulated with LPS; for U937 Cell IC50, uM or % inhib @ conc. (uM): % inhib: @ 10.0 uM; for IC50: read-out: U937 Cell IC50, uM or % inhib @ conc. (uM): IC50
In short: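 U937 cells differentiated 24 h with 20 ng/ml PMA, rested 24-48 h, used at 2 million cells/ml. Compounds in 0.1% DMSO final; LPS (E. coli, 100 ng/ml final) stimulation for 4 h at 37° C. Released TNF-α measured by ELISA; IC50 (μM).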

human p38 kinase alpha = molecular target: T1, human p38 kinase alpha (Homo sapiens, UniProt Q16539); assay: p38 kinase in vitro assay, phosphorylation of biotinylated PHAS-I with 32P-ATP; assay type: biochemical
T1 construct: GST (N, cleaved yes); made in house; host or cells: E. coli DH10B
T1 sequence (Q16539 whole entry): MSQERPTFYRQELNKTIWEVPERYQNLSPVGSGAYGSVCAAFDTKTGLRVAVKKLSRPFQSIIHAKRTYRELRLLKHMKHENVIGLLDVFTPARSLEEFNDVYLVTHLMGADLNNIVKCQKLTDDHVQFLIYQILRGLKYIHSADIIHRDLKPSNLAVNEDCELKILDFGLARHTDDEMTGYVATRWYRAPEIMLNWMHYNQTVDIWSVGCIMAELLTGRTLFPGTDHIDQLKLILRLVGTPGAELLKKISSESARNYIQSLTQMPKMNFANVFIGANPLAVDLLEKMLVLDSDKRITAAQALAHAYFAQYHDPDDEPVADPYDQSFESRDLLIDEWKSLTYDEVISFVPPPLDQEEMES

## Cn1cc(-c2ccncc2)c(-c2ccc(F)cc2)n1 [Example A-212, 4-[3-(4-fluorophenyl)-1-methyl-1H-pyrazol-4-yl]pyridine]
[1]; dose 10, oral gavage
  mLPS 8 h percent inhibition: 20%

## N#Cc1cc(-c2c[nH]nc2-c2ccc(F)cc2)ccn1 [Example A-215, 4-[3-(4-fluorophenyl)-1H-pyrazol-4-yl]-2-pyridinecarbonitrile]
[1]; dose 30, oral gavage
  mLPS 8 h percent inhibition: 38%

## Fc1ccc(-c2nn(CCN3CCOCC3)cc2-c2ccncc2)cc1 [Example A-216, 4-[2-[3-(4-fluorophenyl)-4-(4-pyridinyl)-1H-pyrazol-1-yl]ethyl]morpholine]
[1]; dose 30, oral gavage
  mLPS 8 h percent inhibition: 27%

## Fc1ccc(-c2n[nH]c(NCCN3CCOCC3)c2-c2ccncc2)cc1 [Example A-218, N-[5-(4-fluorophenyl)-4-(4-pyridinyl)-1H-pyrazol-3-yl]-4-morpholineethanamine]
[1]; dose 30, oral gavage
  mLPS 8 h percent inhibition: 18%

## c1cc(-c2c[nH]nc2-c2ccc3c(c2)OCO3)ccn1 [Example A-228, 4-[3-(1,3-benzodioxol-5-yl)-1H-pyrazol-4-yl]pyridine]
[1]; dose 30, oral gavage
  mLPS 8 h percent inhibition: 32%

## Cn1cc(-c2ccncc2)c(-c2cccc(F)c2)n1 [Example A-229, 4-[3-(3-fluorophenyl)-1-methyl-1H-pyrazol-4-yl]pyridine]
[1]; dose not given, oral gavage
  mLPS 8 h percent inhibition: 76%

## Cn1cc(-c2ccncc2)c(-c2ccc3c(c2)OCO3)n1 [Example A-231, 4-[3-(1,3-benzodioxol-5-y)-1-methyl-1H-pyrazol-4-yl]pyridine]
[1]; dose 30, oral gavage
  mLPS 8 h percent inhibition: 86%

## Cc1cccc(-c2nn(C)cc2-c2ccnc(C)c2)c1 [Example A-235, 2-methyl-4-[1-methyl-3 (or 5)-(3-methylphenyl)-1H-pyrazol-4-yl]pyridine]
[1]; 1 h before LPS, 30 mpk, oral gavage, read-out: mLPS 1 h, 30 mpk percent inhibition
  inhibition in vivo at 30 mg/kg: 56%

## Fc1ccc(-c2n[nH]cc2-c2ccncc2)cc1F [Example A-239, 4-[3-(3,4-difluorophenyl)-1H-pyrazol-4-yl]pyridine]
[1]; dose 30, oral gavage
  mLPS 8 h percent inhibition: 51%

## Fc1cc(-c2c[nH]nc2-c2ccc(Cl)cc2)ccn1 [Example A-240]
[1]; dose 30, oral gavage
  mLPS 8 h percent inhibition: 78%

## Brc1ccc(-c2n[nH]cc2-c2ccncc2)cc1 [Example A-241, 4-[3-(4-bromophenyl)-1H-pyrazol-4-yl]pyridine]
[1]; dose 30, oral gavage
  mLPS 8 h percent inhibition: 79%

## Cn1cc(-c2ccncc2)c(-c2ccc(F)c(F)c2)n1 [Example A-242, 4-[3-(3,4-difluorophenyl)-1-methyl-1H-pyrazol-4-yl]pyridine]
[1]; dose 30, oral gavage
  mLPS 8 h percent inhibition: 95%

## Fc1ccc(-c2n[nH]cc2-c2ccnc(F)c2)cc1 [Example A-249, 2-fluoro-4-[3-(4-fluorophenyl)-1H-pyrazol-4-yl]pyridine]
[1]; dose 30, oral gavage
  mLPS 8 h percent inhibition: 73%

## Cn1cc(-c2ccncc2)c(-c2ccc(I)cc2)n1 [Example A-251, 4-[3-(4-iodophenyl)-1-methyl-1H-pyrazol-4-yl]pyridine]
[1]; dose not given, oral gavage
  mLPS 8 h percent inhibition: 32%

## Cn1cc(-c2ccncc2)c(-c2ccc(C(F)(F)F)cc2)n1 [Example A-252, 4-[1-methyl-3-[4-(trifluoromethyl)phenyl]-1H-pyrazol-4-yl]pyridine]
[1]; dose 30, oral gavage
  mLPS 8 h percent inhibition: 48%

## Cn1cc(-c2ccnc(F)c2)c(-c2ccc(F)c(F)c2)n1 [Example A-260, 4-[3-(3,4-difluorophenyl)-1-methyl-1H-pyrazol-4-yl]-2-fluoropyridine]
[1]; dose 30, oral gavage
  mLPS 8 h percent inhibition: 47%

## CN(C)CCn1cc(-c2ccncc2)c(-c2ccc(F)cc2)n1 [Example A-261, 3-(4-fluorophenyl)-N,N-dimethyl-4-(4-pyridinyl)-1H-pyrazole-1-ethanamine]
[1]; dose 30, oral gavage
  mLPS 8 h percent inhibition: 48%

## CN(C)CCn1cc(-c2ccnc(NCc3ccc(F)cc3)c2)c(-c2ccc(F)cc2)n1 [Example A-274, 4-[1-[2-(dimethylamino)ethyl]-3-(4-fluorophenyl)-1H-pyrazol-4-yl]-N-[[4-fluorophenyl)methyl]-2-pyridinamine]
[1]; dose 30, oral gavage
  mLPS 8 h percent inhibition: 21%

## Fc1ccc(-c2n[nH]cc2-c2ccnc(NC3CCNCC3)c2)cc1 [Example A-277, 4-[3-(4-fluorophenyl)-1H-pyrazol-4-yl]-N-4-piperadinyl-2-pyridinamine]
[1]; dose 30, oral gavage
  mLPS 8 h percent inhibition: 33%

## CCN(CC)CCn1cc(-c2ccnc(F)c2)c(-c2ccc(F)cc2)n1 [Example A-278, N,N-diethyl-3-(4-fluorophenyl)-4-(2-fluoro-4-pyridinyl)-1H-pyrazole-1-ethanamine]
[1]; dose 30, oral gavage
  mLPS 8 h percent inhibition: 62%

## CCN(CC)CCn1cc(-c2ccnc(NCc3ccc(F)cc3)c2)c(-c2ccc(F)cc2)n1 [Example A-279, 4-[1-[2-(diethylamino)ethyl]-3-(4-fluorophenyl)-1H-pyrazol-4-yl]-N-[(4-fluorophenyl)methyl]-2-pyridinamine]
[1]; dose 30, oral gavage
  mLPS 8 h percent inhibition: 64%

## CCN(CC)CCN(Cc1ccc(Cl)cc1)C(=O)Cn1nc(-c2ccc(F)cc2)c(-c2ccncc2)c1C [Example B-2398]
[2]
  U937 Cell IC50, uM or % inhib @ conc. (uM): % inhib: 10.0% @
Human p38 kinase alpha; @ 100.0 uM
  P38 alpha kinase IC50, uM or % inhib @ conc. (uM): % inhib: 55% @

## COc1ccc(C2OCCN2C(=O)Cn2nc(-c3ccc(F)cc3)c(-c3ccncc3)c2C)cc1OC (stereo not shown) [Example B-2399]
[2]
  U937 Cell IC50, uM or % inhib @ conc. (uM): % inhib: 18.0% @
Human p38 kinase alpha; @ 10.0 uM
  P38 alpha kinase IC50, uM or % inhib @ conc. (uM): % inhib: 69.0% @

## Cc1cc(Cl)ccc1OCC1SCCN1C(=O)Cn1nc(-c2ccc(F)cc2)c(-c2ccncc2)c1C (stereo not shown) [Example B-2405]
[2]
  IC50: > 10 µM
Human p38 kinase alpha; @ 100.0 uM
  P38 alpha kinase IC50, uM or % inhib @ conc. (uM): % inhib: 47% @

## COC(=O)C1CN1C(=O)Cn1nc(-c2ccc(F)cc2)c(-c2ccncc2)c1C (stereo not shown) [Example B-2406]
[2]
  U937 Cell IC50, uM or % inhib @ conc. (uM): % inhib: 24.0% @
Human p38 kinase alpha; @ 10.0 uM
  P38 alpha kinase IC50, uM or % inhib @ conc. (uM): % inhib: 45.0% @

## COc1ccc2[nH]c3c(c2c1)CCN(C(=O)Cn1nc(-c2ccc(F)cc2)c(-c2ccncc2)c1C)C3 [Example B-2408]
[2]
  U937 Cell IC50, uM or % inhib @ conc. (uM): % inhib: 10.0% @
Human p38 kinase alpha; @ 10.0 uM
  P38 alpha kinase IC50, uM or % inhib @ conc. (uM): % inhib: 39.0% @

## Cc1c(-c2ccncc2)c(-c2ccc(F)cc2)nn1CC(=O)N1CCCCC1CCN1CCCCC1 (stereo not shown) [Example B-2411]
[2]
  U937 Cell IC50, uM or % inhib @ conc. (uM): % inhib: 13.0% @
Human p38 kinase alpha; @ 100.0 uM
  P38 alpha kinase IC50, uM or % inhib @ conc. (uM): % inhib: 26% @

## Cc1c(-c2ccncc2)c(-c2ccc(F)cc2)nn1CC(=O)N(C)CC(=O)N(C)C [Example B-2412]
[2]
  U937 Cell IC50, uM or % inhib @ conc. (uM): % inhib: 31.0% @
Human p38 kinase alpha; @ 10.0 uM
  P38 alpha kinase IC50, uM or % inhib @ conc. (uM): % inhib: 40.0% @

## Cc1cccc(C)c1NC(=O)Cn1nc(-c2ccc(F)cc2)c(-c2ccncc2)c1C [Example B-2417]
[2]
  U937 Cell IC50, uM or % inhib @ conc. (uM): % inhib: 18.0% @
Human p38 kinase alpha; @ 10.0 uM
  P38 alpha kinase IC50, uM or % inhib @ conc. (uM): % inhib: 83.0% @

## Cc1ccc(NC(=O)Cn2nc(-c3ccc(F)cc3)c(-c3ccncc3)c2C)cc1 [Example B-2423]
[2]
  IC50: > 10 µM
Human p38 kinase alpha; @ 10.0 uM
  P38 alpha kinase IC50, uM or % inhib @ conc. (uM): % inhib: 85.0% @

## CCCCCCCCOc1cccc(NC(=O)Cn2nc(-c3ccc(F)cc3)c(-c3ccncc3)c2C)c1 [Example B-2442]
[2]
  IC50: > 10 µM
Human p38 kinase alpha; @ 10.0 uM
  P38 alpha kinase IC50, uM or % inhib @ conc. (uM): % inhib: 86.0% @

## Cc1cccc(OC(=O)c2ccc(NC(=O)Cn3nc(-c4ccc(F)cc4)c(-c4ccncc4)c3C)cc2)c1 [Example B-2444]
[2]
  U937 Cell IC50, uM or % inhib @ conc. (uM): % inhib: 7.0% @
Human p38 kinase alpha; @ 10.0 uM
  P38 alpha kinase IC50, uM or % inhib @ conc. (uM): % inhib: 89.0% @

## Cc1c(-c2ccncc2)c(-c2ccc(F)cc2)nn1CC(=O)Nc1ccc(CCC(=O)c2cccnc2)cc1 [Example B-2445]
[2]
  U937 Cell IC50, uM or % inhib @ conc. (uM): % inhib: 15.0% @
Human p38 kinase alpha; @ 10.0 uM
  P38 alpha kinase IC50, uM or % inhib @ conc. (uM): % inhib: 94.0% @

## Cc1c(-c2ccncc2)c(-c2ccc(F)cc2)nn1CC(=O)Nc1ccc(S(=O)(=O)C(F)F)cc1 [Example B-2446]
[2]
  U937 Cell IC50, uM or % inhib @ conc. (uM): % inhib: 28.0% @
Human p38 kinase alpha; @ 10.0 uM
  P38 alpha kinase IC50, uM or % inhib @ conc. (uM): % inhib: 90.0% @

## CCCCCSc1cccc(NC(=O)Cn2nc(-c3ccc(F)cc3)c(-c3ccncc3)c2C)c1 [Example B-2447]
[2]
  IC50: > 10 µM
Human p38 kinase alpha; @ 10.0 uM
  P38 alpha kinase IC50, uM or % inhib @ conc. (uM): % inhib: 94.0% @

## Cc1c(-c2ccncc2)c(-c2ccc(F)cc2)nn1CC(=O)Nc1ccccc1OC(F)(F)F [Example B-2453]
[2]
  IC50: > 10 µM
Human p38 kinase alpha; @ 10.0 uM
  P38 alpha kinase IC50, uM or % inhib @ conc. (uM): % inhib: 91.0% @

## Cc1c(-c2ccncc2)c(-c2ccc(F)cc2)nn1CC(=O)Nc1ccccc1Sc1ccc([N+](=O)[O-])cn1 [Example B-2457]
[2]
  U937 Cell IC50, uM or % inhib @ conc. (uM): % inhib: 18.0% @
Human p38 kinase alpha; @ 10.0 uM
  P38 alpha kinase IC50, uM or % inhib @ conc. (uM): % inhib: 90.0% @

## CCOC(=O)COc1cccc(NC(=O)Cn2nc(-c3ccc(F)cc3)c(-c3ccncc3)c2C)c1 [Example B-2458]
[2]
  U937 Cell IC50, uM or % inhib @ conc. (uM): % inhib: 36.0% @
Human p38 kinase alpha; @ 10.0 uM
  P38 alpha kinase IC50, uM or % inhib @ conc. (uM): % inhib: 83.0% @
